Columns and labels:
CAL851 = assay: CelltiterGlo viability cell assay; assay type: cell-based; conditions: CAL851, 6 day
Experimental: (§1) Supplementary Figure 13. […] Viability of
(§2) (a) Multiple Myeloma lines and (b) Breast Cancer cell lines following 3 or 6 days treatment with […]
(§3) manufacturer’s instructions as described in the Supplementary methods. Data are normalized to DMSO control. N=3 biological replicates, +/- SEM. Source data are provided as a Source Data […]
(§4) CelltiterGlo viability cell assay
(§5) Cells were seeded in 96 well plates at per-well densities of 10000 (MDA-MB436, ATCC-HTB130), 15000 (8226, kind gift from Rodger Tiedemann, Princess Margaret Cancer Centre), […]
(§6) kind gift from Rodger Tiedemann, Princess Margaret Cancer Centre) and 50000 (CAL851, kind gift from Mathieu Lupien, Princess Margaret Cancer Centre) and were treated at increasing concentrations of compounds ranging from 0.01 μM to 30 μM and assessed for proliferation using CelltiterGlo (Promega) following manufacturer’s instructions, as readout on days 3 and 6 as indicated. All cell lines were mycoplasma negative, as determined by MycoAlert™ Mycoplasma Detection Kit(Lonza). […]

RPMI-8226 = assay: CelltiterGlo viability cell assay; assay type: cell-based
Experimental: as §1, §2, §3, §4, §5, §6

`COc1cc(OC)cc(-c2noc(N3CCN(C)C4(CCN(c5ccccc5)CC4)C3)n2)c1` [MRK-740N] was tested, and the “viability Replicate 2” value (CAL851; 0.01 uM) was 95.18, the “viability Replicate 3” value (CAL851; 0.01 uM) was 102.02 and the “viability Average” value (CAL851; 0.03 uM) was 103.06. For the same compound, the “viability Replicate 1” value (CAL851; 0.03 uM) was 101.15, the “viability Replicate 2” value (CAL851; 0.03 uM) was 96.95 and the “viability Replicate 3” value (CAL851; 0.03 uM) was 111.07. The “viability Average” value (CAL851; 0.1 uM) was 96.92, the “viability Replicate 1” value (CAL851; 0.1 uM) was 94.85 and the “viability Replicate 2” value (CAL851; 0.1 uM) was 96.64. For the same compound, the “viability Replicate 3” value (CAL851; 0.1 uM) was 99.28, the “viability Average” value (CAL851; 0.3 uM) was 101.38 and the “viability Replicate 1” value (CAL851; 0.3 uM) was 95.47. For the same compound, the “viability Replicate 2” value (CAL851; 0.3 uM) was 94.74, the “viability Replicate 3” value (CAL851; 0.3 uM) was 113.94 and the “viability Average” value (CAL851; 1 uM) was 102.45. For the same compound, the “viability Replicate 1” value (CAL851; 1 uM) was 100.66, the “viability Replicate 2” value (CAL851; 1 uM) was 100.26 and the “viability Replicate 3” value (CAL851; 1 uM) was 106.42. The “viability Average” value (CAL851; 3 uM) was 100.92, the “viability Replicate 1” value (CAL851; 3 uM) was 96.08 and the “viability Replicate 2” value (CAL851; 3 uM) was 95.38. The “viability Replicate 3” value (CAL851; 3 uM) was 111.29, the “viability Average” value (CAL851; 9.5 uM) was 96.88 and the “viability Replicate 1” value (CAL851; 9.5 uM) was 95.12. For the same compound, the “viability Replicate 2” value (CAL851; 9.5 uM) was 99.49, the “viability Replicate 3” value (CAL851; 9.5 uM) was 96.04 and the “viability Average” value (CAL851; 30 uM) was 87.30. The “viability Replicate 1” value (CAL851; 30 uM) was 87.23, the “viability Replicate 2” value (CAL851; 30 uM) was 87.15 and the “viability Replicate 3” value (CAL851; 30 uM) was 87.51. For the same compound, the “viability Average” value (RPMI-8226; 8226, 3 day, 0.01 uM) was 101.19, the “viability Replicate 1” value (RPMI-8226; 8226, 3 day, 0.01 uM) was 100.76 and the “viability Replicate 2” value (RPMI-8226; 8226, 3 day, 0.01 uM) was 100.18. The “viability Replicate 3” value (RPMI-8226; 8226, 3 day, 0.01 uM) was 102.63, the “viability Average” value (RPMI-8226; 8226, 3 day, 0.03 uM) was 99.22 and the “viability Replicate 1” value (RPMI-8226; 8226, 3 day, 0.03 uM) was 99.66. For the same compound, the “viability Replicate 2” value (RPMI-8226; 8226, 3 day, 0.03 uM) was 95.69, the “viability Replicate 3” value (RPMI-8226; 8226, 3 day, 0.03 uM) was 102.30 and the “viability Average” value (RPMI-8226; 8226, 3 day, 0.1 uM) was 101.66. The “viability Replicate 1” value (RPMI-8226; 8226, 3 day, 0.1 uM) was 102.47, the “viability Replicate 2” value (RPMI-8226; 8226, 3 day, 0.1 uM) was 99.05 and the “viability Replicate 3” value (RPMI-8226; 8226, 3 day, 0.1 uM) was 103.47. For the same compound, the “viability Average” value (RPMI-8226; 8226, 3 day, 0.3 uM) was 100.14, the “viability Replicate 1” value (RPMI-8226; 8226, 3 day, 0.3 uM) was 98.42 and the “viability Replicate 2” value (RPMI-8226; 8226, 3 day, 0.3 uM) was 99.23. For the same compound, the “viability Replicate 3” value (RPMI-8226; 8226, 3 day, 0.3 uM) was 102.78, the “viability Average” value (RPMI-8226; 8226, 3 day, 1 uM) was 99.15 and the “viability Replicate 1” value (RPMI-8226; 8226, 3 day, 1 uM) was 95.47. For the same compound, the “viability Replicate 2” value (RPMI-8226; 8226, 3 day, 1 uM) was 99.58, the “viability Replicate 3” value (RPMI-8226; 8226, 3 day, 1 uM) was 102.40 and the “viability Average” value (RPMI-8226; 8226, 3 day, 3 uM) was 100.92. For the same compound, the “viability Replicate 1” value (RPMI-8226; 8226, 3 day, 3 uM) was 100.27, the “viability Replicate 2” value (RPMI-8226; 8226, 3 day, 3 uM) was 100.06 and the “viability Replicate 3” value (RPMI-8226; 8226, 3 day, 3 uM) was 102.42. For the same compound, the “viability Average” value (RPMI-8226; 8226, 3 day, 9.5 uM) was 90.08, the “viability Replicate 1” value (RPMI-8226; 8226, 3 day, 9.5 uM) was 80.69 and the “viability Replicate 2” value (RPMI-8226; 8226, 3 day, 9.5 uM) was 88.67. For the same compound, the “viability Replicate 3” value (RPMI-8226; 8226, 3 day, 9.5 uM) was 100.87, the “viability Average” value (RPMI-8226; 8226, 3 day, 30 uM) was 40.55 and the “viability Replicate 1” value (RPMI-8226; 8226, 3 day, 30 uM) was 58.77. The “viability Replicate 2” value (RPMI-8226; 8226, 3 day, 30 uM) was 22.31, the “viability Replicate 3” value (RPMI-8226; 8226, 3 day, 30 uM) was 40.58 and the “viability Average” value (RPMI-8226; 8226, 6 day, 0.01 uM) was 98.95. The “viability Replicate 1” value (RPMI-8226; 8226, 6 day, 0.01 uM) was 98.27, the “viability Replicate 2” value (RPMI-8226; 8226, 6 day, 0.01 uM) was 97.90 and the “viability Replicate 3” value (RPMI-8226; 8226, 6 day, 0.01 uM) was 100.68. For the same compound, the “viability Average” value (RPMI-8226; 8226, 6 day, 0.03 uM) was 98.07, the “viability Replicate 1” value (RPMI-8226; 8226, 6 day, 0.03 uM) was 95.77 and the “viability Replicate 2” value (RPMI-8226; 8226, 6 day, 0.03 uM) was 97.65. The “viability Replicate 3” value (RPMI-8226; 8226, 6 day, 0.03 uM) was 100.80, the “viability Average” value (RPMI-8226; 8226, 6 day, 0.1 uM) was 98.68 and the “viability Replicate 1” value (RPMI-8226; 8226, 6 day, 0.1 uM) was 95.86. The “viability Replicate 2” value (RPMI-8226; 8226, 6 day, 0.1 uM) was 100.16, the “viability Replicate 3” value (RPMI-8226; 8226, 6 day, 0.1 uM) was 100.02 and the “viability Average” value (RPMI-8226; 8226, 6 day, 0.3 uM) was 96.98. The “viability Replicate 1” value (RPMI-8226; 8226, 6 day, 0.3 uM) was 94.57, the “viability Replicate 2” value (RPMI-8226; 8226, 6 day, 0.3 uM) was 97.72 and the “viability Replicate 3” value (RPMI-8226; 8226, 6 day, 0.3 uM) was 98.63. The “viability Average” value (RPMI-8226; 8226, 6 day, 1 uM) was 97.56, the “viability Replicate 1” value (RPMI-8226; 8226, 6 day, 1 uM) was 97.46 and the “viability Replicate 2” value (RPMI-8226; 8226, 6 day, 1 uM) was 98.37. For the same compound, the “viability Replicate 3” value (RPMI-8226; 8226, 6 day, 1 uM) was 96.84, the “viability Average” value (RPMI-8226; 8226, 6 day, 3 uM) was 100.28 and the “viability Replicate 1” value (RPMI-8226; 8226, 6 day, 3 uM) was 98.97. For the same compound, the “viability Replicate 2” value (RPMI-8226; 8226, 6 day, 3 uM) was 101.92, the “viability Replicate 3” value (RPMI-8226; 8226, 6 day, 3 uM) was 99.95 and the “viability Average” value (RPMI-8226; 8226, 6 day, 9.5 uM) was 107.21. The “viability Replicate 1” value (RPMI-8226; 8226, 6 day, 9.5 uM) was 106.83, the “viability Replicate 2” value (RPMI-8226; 8226, 6 day, 9.5 uM) was 105.76 and the “viability Replicate 3” value (RPMI-8226; 8226, 6 day, 9.5 uM) was 109.04. The “viability Average” value (RPMI-8226; 8226, 6 day, 30 uM) was 80.58, the “viability Replicate 1” value (RPMI-8226; 8226, 6 day, 30 uM) was 102.03 and the “viability Replicate 2” value (RPMI-8226; 8226, 6 day, 30 uM) was 55.75. The “viability Replicate 3” value (RPMI-8226; 8226, 6 day, 30 uM) was 83.98.

— paper PMC6917776, “Discovery of a chemical probe for PRDM9” (Nature Communications, 2019)
